Experiments:
CREB = assay: pCREB phosphorylation in rat primary neurons; format: cell-based; conditions: Primary neuron, 0.5 h, 30 μM DETA-NONOate, 30 min, 95% confidence interval 0.07 nM to 4.44 nM, read-out: EC50, phosphorylation of CREB at Ser133
Experimental: Compounds. Compound I-5 was dissolved in DMSO as a 10 mM solution and stored at −20° C. To achieve desired test concentrations, stock concentrations were serially diluted into DMSO and then diluted to the appropriate concentration in assay buffer.
Rat primary neurons culture. Neurons were isolated from Sprague Dawley rat embryos on embryonic day 18 (E18). Approximately 10 embryos were obtained from each rat, and whole brains were isolated from the embryos. Hippocampus and cortex were dissected from the brains under a stereoscopic microscope using two pairs of fine tweezers. The meninges were carefully removed. After dissection, the tissues were chopped and washed gently once with 10 mL of Ca^2+ and Mg^2+ free Hank's solution (HBSS, Corning cat #21-022-CM) in a 15-mL conical tube. After washing, 5 mL of a solution of 0.25% trypsin (Invitrogen cat #15090-046) and 0.1% deoxyribonuclease I (DNase I, Sigma cat #DN-25) were added to the tissues in the tube, which were then incubated at 37° C. for 15 min. […]
Assay Conditions. […] Medium was removed and cell were lysed and assay was performed according to Cisbio protocol (phospho-CREB (Ser133) catalog #64CREPEG) and the plate was read using Envision instrument (PerkinElmer).
Data Analysis. Data were analyzed with a 4-parameter fit (log(agonist) vs. response—variable slope) using GraphPad Prism Software v.7. […]

BDNF = assay: Effect on BDNF protein in the rat dorsal striatum, quinolinic acid lesion model; format: in vivo; conditions: 10 mg/kg once a day for 7 days
Experimental: Protocol. Experimental day 1: Rats were deeply anesthetized with isoflurane and each rat received a unilateral infusion of 0.25 μl of 50 mM quinolinic acid (QA) in the dorsal striatum (12.5 nmoles of QA on the left or right hemisphere). The dorsal striatum contralateral to the QA infusion on each rat received a control infusion of 0.25 μl PBS (control side). Some animals were dosed S.C. with vehicle (n=5) or 10 mg/Kg Compound I-2 (n=6) about 30 minutes after QA infusion. Experimental days 2-8: Rats were dosed every 24 h P.O. with Vehicle or 10 mg/Kg Compound I-2. About 24 h after the last dosing of vehicle or Compound I-2, rats were anesthetized, perfused with PBS followed by perfusion with 4% Paraformaldehyde in PBS; brain tissue was collected and placed in a falcon tube covered with 4% Paraformaldehyde (PAF) in PBS for about 14 h at 4° C. and then replaced by PBS with 30% sucrose solution for about 48 h. Brain tissue was cut in 40 μm coronal slices and stored in PBS at 4° C. […] Images from the dorsomedial area around the QA lesion or equivalent area on the control hemisphere were taken using confocal fluorescence microscopy. Images were analyzed using imageJ software to determine the average BDNF intensity in NeuN positive cells.

cGMP = assay: Dose-response compound-induced cGMP in mouse brain (cerebrum); format: in vivo; conditions: 30 minutes after dosing
Experimental: Protocol. Experimental Day 1: Fast mice overnight with ad libitum access to water. Experimental Day 2: Mice (n=10 per experimental condition) were dosed P.O. with vehicle (1% hydroxypropyl methyl cellulose, 0.2% Tween80, 0.5% methyl cellulose), 3 or 10 mg/Kg of Compound I-2 prepared in vehicle. Thirty minutes after dosing, under isoflurane anesthesia, each mouse was decapitated and its brain was removed. The cerebrum was separated from each brain and placed in separate 15 ml falcon tubes and flash froze by immersion into liquid nitrogen. The tissue samples were stored at −80 C. cGMP levels in brain were determined by LC/MS. Brain samples were homogenized in an aqueous buffer consisting of 80:20 (V/V %) water:acetic acid using an ultrasonicator probe. Brain homogenates containing sGC compounds and or cGMP were extracted from brain tissue by protein precipitation with an organic solvent containing internal standards (IS) followed by filtration and phospholipid removal using a Phenomenex® Phree™ phospholipid removal plate. Samples were analyzed using liquid chromatography (LC) with tandem mass spectrometric detection (MS/MS) using electrospray ionization. The standard curve concentrations used for quantitation of cGMP and or sGC compound(s) ranged from 0.2 to 400 ng/mL. Protein quantification of brain samples was determined using BCA protein assay kit

Healthy rats = Healthy rats - paw pressure test; format: in vivo, rat; conditions: Compound I-2 p.o. 10 mg/kg; 120 minutes after treatment
Experimental: Paw Pressure Test. Static mechanical hyperalgesia is measured. This test requires the application of an increasing pressure on the hind paws between a flat surface and a blunt pointer. To evaluate the analgesic action of a compound, one hind paw of the animal was inflamed by an injection or injured by ligation, while the other hind paw was not injured or inflamed. The apparatus exerted a steadily increasing force on the hind paws. The reaction threshold was determined as the pressure (g) required to elicit paw withdrawal and/or vocalization. The animals were gently handled by the experimenter and static mechanical hyperalgesia were assessed two times for both hind paws.
Testing: 120 minutes after treatment. N=4/model/test. Results are expressed for each group as a percentage of activity calculated from the mean value of the vehicle-treated animals and compared to naïve animals, control paw, or cut-off value, depending on the test.

| EC50 (CREB) [nM] | Structure (SMILES) | BDNF averaged intensity in NeuN positive cells around the QA lesion, as compared to vehicle treatment (BDNF) | BDNF averaged intensity in NeuN positive cells in the dorsomedial striatum without a lesion (control side), as compared to vehicle treatment (BDNF) | cGMP in mouse brain as compared to vehicle dosed animals (cGMP; acute 3 mg/Kg P.O.) | cGMP in mouse brain as compared to vehicle dosed animals (cGMP; acute 10 mg/Kg P.O.) | % of activity vs. vehicle, healthy rats paw pressure test (Healthy rats) [%] |
| --- | --- | --- | --- | --- | --- | --- |
| 0.55 | FC(F)(F)c1n[nH]c(-c2nc(Cc3cncnc3)c3ccccn23)n1 [Compound I-5] | – | – | – | – | – |
| – | Fc1ccccc1Cn1nc(-c2nc(C(F)(F)F)n[nH]2)c2cccnc21 [Compound I-2] | increase | increase | increases | increases | −10 |

Source: patent publication US11690828B2, “Treatment of CNS diseases with sGC stimulators” (Cyclerion Therapeutics, Inc., priority 2016, dated 2023)
